Assay results from patent US20100159093A1, “METHOD OF TREATING FOODSTUFF” (priority 2008, published 2010).

How the values were obtained:
[1] = test system: anaerobically cultivated phospholipase-producing bacteria; test: Number of anaerobically cultivated phospholipase-producing bacteria in raw milk under nitrogen gas; type: cell-based; details: 12.0° C., FIG. 5K
Description: (§1) With the device shown in FIG. 1, the effect of nitrogen gas on the natural microflora in raw milk (volume approximately 125 ml) was examined by replacing the air (control) in an open vessel (volume approximately 250 ml) at a constant temperature, with a flow-through of 100% nitrogen gas (purity 99.999%, manufacturer AGA) at two different flow-through rates: N1=120 ml/min, N2=40 ml/min. The temperature of the raw milk in the sample bottles was adjusted by means of the thermostat (14) of the water bath to bring the temperature of the milk to 6.0° C., 7.0° C. or 12.0° C. The temperature variation in the vessel was less than ±0.1° C. The effect of nitrogen gas on the growth of the microflora in a raw milk sample at 12.0° C. Two flow-through rates of the nitrogen gas were used in the study: (▴) 40 ml/min and ([…]) 120 ml/min. […] The following bacterial levels were determined in the samples: FIG. 5A: Total bacteria count (p.m.y./ml) FIG. 5B: Total number of psychrotrophs (p.m.y./ml) FIG. 5C: Total number of proteolytic bacteria (p.m.y./ml) FIG. 5D: Total number of lipolytic bacteria (p.m.y./ml) FIG. 5E: Total number of bacteria producing phospholipase (p.m.y./ml). […]

[2] = test system: microaerobic/fermentative microbes (such as lactobacilli); test: Growth of lactobacillus-type bacteria in raw milk under nitrogen gas; type: cell-based; details: 12.0° C., N1 environment (120 ml/min), Example 5, FIG. 5G
Description: as §1

[3] = test system: natural microflora in raw milk (total bacteria count); test: Growth of the natural microflora (total bacteria count) in raw milk under nitrogen gas; type: cell-based
Description: With the device shown in FIG. 1, the effect of nitrogen gas on the natural microflora in raw milk (volume approximately 125 ml) was examined by replacing the air (control) in an open vessel (volume approximately 250 ml) at a constant temperature, with a flow-through of 100% nitrogen gas (purity 99.999%, manufacturer AGA) at two different flow-through rates: N1=120 ml/min, N2=40 ml/min. The apparatus comprises a nitrogen source (1), which is connected by means of a flow channel (2) to two sample bottles (3 and 4). The device also comprises a bottle (5) which contains a reference sample. Filters (6a, 6b, 7a, 7b and 8a, 8b) are connected to the gas flow channels (2), which are made of silicon pipe/hose. The pore size of the filters is 0.2 μm. A flow meter is attached to the flow channels (2), in order to allow the rate at which the gas flows are to be adjusted. The sample bottles are placed in a water bath (10). […] and magnetic mixers (12) are used to mix the contents of the bottles. The water of the water bath (10) is cooled with a cooling coil (11) which is connected to a cooling unit (13), and the entire test apparatus is placed in a cold store, the temperature of which is 5° C. (except the nitrogen bottle). The water temperature of the water bath (10) is adjusted to a desired temperature with the help of an adjustable submersible thermostat (14). The temperature of the raw milk in the sample bottles was adjusted by means of the thermostat (14) of the water bath to bring the temperature of the milk to 6.0° C., 7.0° C. or 12.0° C. The temperature variation in the vessel was less than ±0.1° C. […] The effect of nitrogen gas on the growth of the microflora in a raw milk sample at 6.0° C. Two flow-through rates of the nitrogen gas were used in the study: (▴) 40 ml/min and ([…])120 ml/min. […] The following bacterial levels were determined in the samples: The effect of nitrogen gas on the growth of the microflora in a raw milk sample at 7.0° C. Two flow-through rates of the nitrogen gas were used in the study: (▴) 40 ml/min and ([…])120 ml/min. […] The following bacterial levels were determined in the samples: The effect of nitrogen gas on the growth of the microflora in a raw milk sample at 12.0° C. Two flow-through rates of the nitrogen gas were used in the study: (▴) 40 ml/min and ([…]) 120 ml/min. […] The following bacterial levels were determined in the samples: […]

[4] = test system: haemolytic bacteria; test: Number of haemolytic bacteria in raw milk (blood culture dishes) under nitrogen gas; type: cell-based; details: 12.0° C., following four days of treatment
Excerpt: It is possible to measure the effectiveness of nitrogen gas for preventing growth of phospholipase for instance as a difference in the number of haemolytic microbes in the foodstuff or foodstuff material, which is an indication of the growth-preventing effect of the nitrogen gas, which effect is directed at the microbes, which produce phospholipase-transmitted virulence factors (see Example 6 below).
(§2) With the device shown in FIG. 1, the effect of nitrogen gas on the natural microflora in raw milk (volume approximately 125 ml) was examined by replacing the air (control) in an open vessel (volume approximately 250 ml) at a constant temperature, with a flow-through of 100% nitrogen gas (purity 99.999%, manufacturer AGA) at two different flow-through rates: N1=120 ml/min, N2=40 ml/min.
Two flow-through rates of the nitrogen gas were used in the study: (grey) 40 ml/min and (black) 120 ml/min.

[5] = test system: Bacillus cereus; test: Number of Bacillus cereus bacteria in raw milk (MYP dish) under nitrogen gas; type: cell-based; details: 6.0° C., N2 environment (40 ml/min), after 7 days
Description: as §2
Two flow-through rates of the nitrogen gas were used in the study; (N2) 40 ml/min and (N1) 120 ml/min.

[6] = test system: psychrotrophic bacteria in raw milk and lactic acid bacteria; details: 4° C., closed vessel, Murray et al.; cited from earlier work
[7] = test system: psychrotrophs in raw milk; details: 7° C., closed system, Dechemi et al.; cited from earlier work
[8] = 6.0° C., N2 environment (40 ml/min)

## N#N [nitrogen gas]
[1]; N1 environment (120 ml/min)
  growth of the anaerobic bacteria which secrete phospholipase: total prevention of growth
[1]; N2 environment (40 ml/min)
  growth of the anaerobic bacteria which secrete phospholipase: total prevention of growth
[2]
  growth of microaerobic/fermentative microbes (such as lactobacilli): able to delay the growth
[3]; 6.0° C., N1 environment (120 ml/min), measurement period of 11 days
  growth of the bacteria: totally prevents the growth of the bacteria
[3]; [8]
  growth of the microbes: capable of preventing the growth of the microbes for 7 days
  increase of the microbe level during a period of 3 days: less than 1 log-unit
[3]; 7.0° C., N1 environment (120 ml/min), prevents = log increases by less than one unit in 3 days
  total growth/the growth of the microbes: still prevents
[3]; 7.0° C., N2 environment (40 ml/min)
  growth of the total microbial count: delays the growth of the total microbial count, although it cannot totally prevent the growth
[3]; 12.0° C., N1 environment (120 ml/min), Example 4 sample
  growth of the total microbial count: still prevents or nearly prevents the growth of the total microbial count
[3]; 12.0° C., N1 environment (120 ml/min), Example 5 sample
  growth of the total number of the microbes: substantially delay the growth of the total number of the microbes
[4]; N1 environment (120 ml/min)
  haemolytic microbes in the raw milk: none
[4]; N2 environment (40 ml/min)
  haemolytic microbes, less than in the control environment: 2 log-units
[5]
  elimination of bacteria of the B. cereus type from raw milk: adequate for eliminating the bacteria of the B. cereus type
[6]
  growth of the psychrotrophic bacteria in raw milk and of the lactic acid bacteria: only slightly slowed down the growth
  production of the proteolytic exoenzymes by the psychrotrophic bacteria: effectively prevented the production
[7]
  effect of inhibiting the protease activity, among the gas alternatives tested: neither the best nor the worst one
  preventing the growth of the microbes and inhibiting the lipase activity, among the protecting gases used: least effective
